Reference: the supplement of paper PMC5908809

What was measured:
[1] = tested on: IMC-1 (IL-2 20 ng/mL); experiment: drug sensitivity score (DSS) (DSS units); higher = more sensitive; extreme values may be limits of the assay; details: 72 h
[2] = tested on: normal primary NK cells, pool 1 (3 donors) (IL-2 2.5 ng/mL); experiment: as above; details: 72 h
[3] = tested on: NKL (IL-2 2.5 ng/mL); experiment: as above; details: 72 h
[4] = tested on: SNK-6 (IL-2 2.5 ng/mL); experiment: as above; details: 72 h
[5] = tested on: KHYG-1 (IL-2 2.5 ng/mL); experiment: as above; details: 72 h
[6] = tested on: YT (IL-2 2.5 ng/mL); experiment: as above; details: 72 h
[7] = tested on: normal primary NK cells, pool 3 (3 donors) (IL-2 2.5 ng/mL); experiment: as above; details: 72 h
[8] = tested on: DERL-7 (IL-2 2.5 ng/mL); experiment: as above; details: 72 h
[9] = tested on: normal primary NK cells, pool 1 (3 donors), resting (IL-2 0 ng/mL); experiment: as above; details: 72 h
[10] = tested on: NK-92 (IL-2 2.5 ng/mL); experiment: as above; details: 72 h
[11] = tested on: NK-YS (IL-2 2.5 ng/mL); experiment: as above; details: 72 h
[12] = tested on: normal primary NK cells, pool 2 (3 donors) (IL-2 2.5 ng/mL); experiment: as above; details: 72 h
[13] = tested on: KAI3 (IL-2 2.5 ng/mL); experiment: as above; details: 72 h
[14] = tested on: normal NK cells expanded with K562-aAPC; experiment: as above; details: 72 h; IL-2 2.5 ng/mL
Procedure: (§1)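 Drug sensitivity and resistance testing on K562-aAPC-expanded normal NK cells: 5 concentrations (10-fold steps over a 10,000-fold range), 72 h at 37 °C, viability by CellTiter-Glo normalised to DMSO and benzethonium chloride controls; DSS from the fitted curve.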

[15] = tested on: normal NK cells expanded with K562-aAPC; experiment: percent inhibition of viability; higher = more inhibition; details: 72 h, IL-2 2.5 ng/mL
Procedure: as §1

[16] = tested on: IMC-1 (IL-2 20 ng/mL); experiment: as above; details: 72 h
[17] = tested on: normal primary NK cells, pool 1 (3 donors) (IL-2 2.5 ng/mL); experiment: as above; details: 72 h
[18] = tested on: NKL (IL-2 2.5 ng/mL); experiment: as above; details: 72 h
[19] = tested on: SNK-6 (IL-2 2.5 ng/mL); experiment: as above; details: 72 h
[20] = tested on: KHYG-1 (IL-2 2.5 ng/mL); experiment: as above; details: 72 h
[21] = tested on: YT (IL-2 2.5 ng/mL); experiment: as above; details: 72 h
[22] = tested on: normal primary NK cells, pool 3 (3 donors) (IL-2 2.5 ng/mL); experiment: as above; details: 72 h
[23] = tested on: DERL-7 (IL-2 2.5 ng/mL); experiment: as above; details: 72 h
[24] = tested on: normal primary NK cells, pool 1 (3 donors), resting (IL-2 0 ng/mL); experiment: as above; details: 72 h
[25] = tested on: NK-92 (IL-2 2.5 ng/mL); experiment: as above; details: 72 h
[26] = tested on: NK-YS (IL-2 2.5 ng/mL); experiment: as above; details: 72 h
[27] = tested on: normal primary NK cells, pool 2 (3 donors) (IL-2 2.5 ng/mL); experiment: as above; details: 72 h
[28] = tested on: KAI3 (IL-2 2.5 ng/mL); experiment: as above; details: 72 h

Cc1ccc2nc(CN(CCN(Cc3nc4ccc(C)cc4[nH]3)Cc3nc4ccc(C)cc4[nH]3)Cc3nc4ccc(C)cc4[nH]3)[nH]c2c1 (max concentration tested 50000 nM)
Details | drug sensitivity score
[1] | 4.41
[2] | 9.43
[3] | 15.5
[4] | 4.89
[5] | 10.5
[6] | 9.85
[7] | 2.31
[8] | 9.01
[9] | 9.11
[10] | 12.5
[11] | 8.57
[12] | 3.42
[13] | 13.3
[14] | 8.41

percent inhibition of viability [%]
Details | 5 nM | 50 nM | 500 nM | 5000 nM | 50000 nM
[15] | -4.88 | -8.25 | -3.73 | 17.5 | 100
[16] | -6.83 | -3.4 | -4.29 | 10.4 | 51.3
[17] | -9.49 | 4.67 | 4.72 | 25.6 | 101
[18] | 2.31 | -9.86 | 19.8 | 69.1 | 107
[19] | -21 | -28.4 | -6.29 | -12.1 | 101
[20] | -9.01 | -6.49 | -6.15 | 36.3 | 108
[21] | -8.1 | -15.1 | -6.51 | 29.4 | 108
[22] | -5.58 | -1.41 | 10.2 | 5.2 | 32.2
[23] | 2.65 | -5.22 | 4.05 | 22 | 101
[24] | -25.9 | 1.32 | 12.4 | 24.8 | 99.8
[25] | -27.1 | -13.1 | 15.2 | 54.5 | 110
[26] | -2.1 | -1.56 | 2.07 | 18.1 | 107
[27] | -1.51 | 3.91 | 12.8 | 12.1 | 37.9
[28] | -0.45 | -7.54 | 8.33 | 62.9 | 110
